According to PubChem BioAssay (NCI):
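Protocol summary: plate cells (96-well), add compound at 5 concentrations, incubate 48 h, interpolate endpoints linearly. GI50 marks 50% less growth. TGI: concentration producing complete growth inhibition.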

Assays:
Experiment in all cases: inhibition of tumour cell growth, NCI panel, 48 h; in the data active = GI50 below about 0.43 µM; inactive = the rest
UACC-62 melanoma = system: UACC-62 melanoma
786-0 renal = system: 786-0 renal
OVCAR-3 ovarian = system: OVCAR-3 ovarian
MDA-MB-435 = system: MDA-MB-435
A498 renal = system: A498 renal
SK-OV-3 ovarian = system: SK-OV-3 ovarian
MDA-MB-468 breast = system: MDA-MB-468 breast
HT29 colon = system: HT29 colon
MDA-MB-231 breast = system: MDA-MB-231 breast
M14 melanoma = system: M14 melanoma
MOLT-4 leukemia = system: MOLT-4 leukemia
HCC-2998 colon = system: HCC-2998 colon
SK-MEL-5 melanoma = system: SK-MEL-5 melanoma
RPMI-8226 leukemia = system: RPMI-8226 leukemia
SNB-19 CNS = system: SNB-19 CNS
SK-MEL-2 melanoma = system: SK-MEL-2 melanoma
TK-10 renal = system: TK-10 renal
RXF 393 renal = system: RXF 393 renal
HL-60(TB) leukemia = system: HL-60(TB) leukemia
SF-539 CNS = system: SF-539 CNS
OVCAR-4 ovarian = system: OVCAR-4 ovarian
HS 578T breast = system: HS 578T breast
CCRF-CEM leukemia = system: CCRF-CEM leukemia
U251 CNS = system: U251 CNS
HOP-92 NSCLC = system: HOP-92 NSCLC
SW-620 colon = system: SW-620 colon
HCT-116 colon = system: HCT-116 colon
LOX IMVI melanoma = system: LOX IMVI melanoma
HOP-62 NSCLC = system: HOP-62 NSCLC
UO-31 renal = system: UO-31 renal
NCI-H460 lung = system: NCI-H460 lung
MCF7 breast = system: MCF7 breast
T-47D breast = system: T-47D breast
SR leukemia = system: SR leukemia
OVCAR-5 ovarian = system: OVCAR-5 ovarian
K-562 leukemia = system: K-562 leukemia
CAKI-1 renal = system: CAKI-1 renal
MALME-3M melanoma = system: MALME-3M melanoma
NCI-H23 lung = system: NCI-H23 lung
A549 NSCLC = system: A549 NSCLC
NCI-H226 lung = system: NCI-H226 lung
SK-MEL-28 melanoma = system: SK-MEL-28 melanoma
DU-145 prostate = system: DU-145 prostate
ACHN renal = system: ACHN renal
HCT-15 colon = system: HCT-15 colon
EKVX NSCLC = system: EKVX NSCLC
BT-549 breast = system: BT-549 breast
SF-295 CNS = system: SF-295 CNS
COLO 205 colon = system: COLO 205 colon
SF-268 CNS = system: SF-268 CNS
NCI-H522 lung = system: NCI-H522 lung
OVCAR-8 ovarian = system: OVCAR-8 ovarian
IGROV1 ovarian = system: IGROV1 ovarian
PC-3 prostate = system: PC-3 prostate
SN12C renal = system: SN12C renal
UACC-257 melanoma = system: UACC-257 melanoma
KM12 colon = system: KM12 colon

CN(C)c1nc(NCCNS(=O)(=O)c2ccc(C3=Nc4c(N)nc(N)nc4NC(c4ccc(C(F)(F)F)cc4)C3)cc2)nc(N2CCOCC2)n1 (centres undefined)
30.1 µM: TGI (SK-MEL-5 melanoma)
53.3 µM: TGI (MALME-3M melanoma)
87.9 µM: TGI (SF-539 CNS)
30.9 µM: TGI (MDA-MB-468 breast)
48.2 µM: TGI (HT29 colon)
48.3 µM: TGI (HOP-92 NSCLC)
30.2 µM: TGI (SK-MEL-2 melanoma)
33.2 µM: TGI (LOX IMVI melanoma)
44.4 µM: TGI (MDA-MB-231 breast)
35.5 µM: TGI (COLO 205 colon)
54.9 µM: TGI (UACC-257 melanoma)
31.8 µM: TGI (BT-549 breast)
63.8 µM: TGI (M14 melanoma)
36.4 µM: TGI (UACC-62 melanoma)
95.9 µM: TGI (OVCAR-5 ovarian)
46.4 µM: TGI (HCC-2998 colon)
81.3 µM: TGI (MCF7 breast)
83.9 µM: TGI (HL-60(TB) leukemia)
inactive: GI50 (UACC-62 melanoma) 16.4 µM | GI50 (786-0 renal) 20.8 µM | GI50 (OVCAR-3 ovarian) 53.9 µM | GI50 (MDA-MB-435) 34.2 µM | GI50 (A498 renal) 24.1 µM | GI50 (SK-OV-3 ovarian) 69.7 µM | GI50 (MDA-MB-468 breast) 13.7 µM | GI50 (HT29 colon) 19.8 µM | GI50 (MDA-MB-231 breast) 16.9 µM | GI50 (M14 melanoma) 22 µM | GI50 (MOLT-4 leukemia) 17.3 µM | GI50 (HCC-2998 colon) 20.2 µM | GI50 (SK-MEL-5 melanoma) 15.9 µM | GI50 (RPMI-8226 leukemia) 11.2 µM | GI50 (SNB-19 CNS) 30 µM | GI50 (SK-MEL-2 melanoma) 15.8 µM | GI50 (TK-10 renal) 54.4 µM | GI50 (RXF 393 renal) 10.3 µM | GI50 (HL-60(TB) leukemia) 27.4 µM | GI50 (SF-539 CNS) 22.5 µM | GI50 (OVCAR-4 ovarian) 37 µM | GI50 (HS 578T breast) 19.2 µM | GI50 (CCRF-CEM leukemia) 25.9 µM | GI50 (U251 CNS) 24.2 µM | GI50 (HOP-92 NSCLC) 7.48 µM | GI50 (SW-620 colon) 46.9 µM | GI50 (HCT-116 colon) 41.9 µM | GI50 (LOX IMVI melanoma) 17.1 µM | GI50 (HOP-62 NSCLC) 50.7 µM | GI50 (UO-31 renal) > 100 µM | GI50 (NCI-H460 lung) 36.5 µM | GI50 (MCF7 breast) 18.1 µM | GI50 (T-47D breast) 21.3 µM | GI50 (SR leukemia) 18.1 µM | GI50 (OVCAR-5 ovarian) 27 µM | GI50 (K-562 leukemia) 29.1 µM | GI50 (CAKI-1 renal) 25.9 µM | GI50 (MALME-3M melanoma) 19.9 µM | GI50 (NCI-H23 lung) 37.6 µM | GI50 (A549 NSCLC) 51.3 µM | GI50 (NCI-H226 lung) 17.6 µM | GI50 (SK-MEL-28 melanoma) 34.1 µM | GI50 (DU-145 prostate) 72 µM | GI50 (ACHN renal) 64.4 µM | GI50 (HCT-15 colon) 30.9 µM | GI50 (EKVX NSCLC) 47.2 µM | GI50 (BT-549 breast) 13.8 µM | GI50 (SF-295 CNS) 21.1 µM | GI50 (COLO 205 colon) 16.5 µM | GI50 (SF-268 CNS) 19.9 µM | GI50 (NCI-H522 lung) 51.7 µM | GI50 (OVCAR-8 ovarian) 59.5 µM | GI50 (IGROV1 ovarian) 27 µM | GI50 (PC-3 prostate) 24.6 µM | GI50 (SN12C renal) 35.7 µM | GI50 (UACC-257 melanoma) 20.4 µM | GI50 (KM12 colon) 37 µM
> 100 µM: TGI (786-0 renal) | TGI (OVCAR-3 ovarian) | TGI (MDA-MB-435) | TGI (SK-OV-3 ovarian) | TGI (MOLT-4 leukemia) | TGI (RPMI-8226 leukemia) | TGI (SNB-19 CNS) | TGI (TK-10 renal) | TGI (OVCAR-4 ovarian) | TGI (HS 578T breast) | TGI (CCRF-CEM leukemia) | TGI (U251 CNS) | TGI (SW-620 colon) | TGI (HCT-116 colon) | TGI (HOP-62 NSCLC) | TGI (UO-31 renal) | TGI (NCI-H460 lung) | TGI (T-47D breast) | TGI (SR leukemia) | TGI (K-562 leukemia) | TGI (CAKI-1 renal) | TGI (NCI-H23 lung) | TGI (A549 NSCLC) | TGI (NCI-H226 lung) | TGI (SK-MEL-28 melanoma) | TGI (DU-145 prostate) | TGI (ACHN renal) | TGI (HCT-15 colon) | TGI (EKVX NSCLC) | TGI (SF-268 CNS) | TGI (NCI-H522 lung) | TGI (OVCAR-8 ovarian) | TGI (IGROV1 ovarian) | TGI (PC-3 prostate) | TGI (SN12C renal) | TGI (KM12 colon)
82.9 µM: TGI (A498 renal)
83.7 µM: TGI (SF-295 CNS)
45.5 µM: TGI (RXF 393 renal)
